System: IRF3
Assay: IRF3 activation assay in THP-1 Dual Cells (QUANTI-Blue reporter)
Assay type: cell-based
Details: Homo sapiens, THP1-Dual, 24 hours incubation, absorbance at 620-655 nm
Procedure: THP-1 Dual Cells (Invivogen) were maintained in RPMI1640 medium with addition of 10% FBS, 100 μg/mL zeocin, 10 μg/mL blasticidin. Cells were added in a 96-well flat bottom assay plate at 100,000 per well in 100 μL complete RPMI medium. Test compounds were prepared by serial dilution in complete RPMI medium and 100 μL test compounds were transferred to each corresponding well. The assay plate was incubated at 37° C., 5% CO2 for 24 hours. After the overnight incubation, 20 μL of the culture supernatants were collected, followed by addition of 180 μL of QUANTI-Blue (Invivogen) to assess IRF3 activity. The amount of IRF3 activation was assessed by reading the absorbance at 620-655 nm with a microplate reader 2 hours later. The culture supernatant from the untreated THP-1 cells was used as the negative control. To determine the NF-κB activation, another 20 μL of culture supernatant were transferred to a 96-well white plate, followed by addition of 50 μL of Quanti-Luc™ assay solution (Invivogen). The amount of NF-κB activation induced by the test compounds were determined by the luminescence above the untreated control. EC50 determination was performed by fitting the curve of percent control activity versus the log of the compound concentration using the GraphPad Prism 6.0 software.

EC50 [µM]	Structure (SMILES)
≤ 0.1	CCn1nc(C)cc1-c1ncc2c3cc(C(N)=O)cc(OC)c3n(C/C=C/Cn3c4nc(-c5cc(C)nn5CC)ncc4c4cc(C(N)=O)cc(OC)c43)c2n1 [Example 1, (E)-9,9′-(but-2-ene-1,4-diyl)bis(2-(1-ethyl-3-methyl-1H-pyrazol-5-yl)-8-methoxy-9H-pyrimido[4,5-b]indole-6-carboxamide)]
≤ 0.1	CCn1nc(C)cc1-c1ncc2c3cc(C(N)=O)cc(OCCCO)c3n(C/C=C/Cn3c4nc(-c5cc(C)nn5CC)ncc4c4cc(C(N)=O)cc(OCCCO)c43)c2n1 [Example 2, (E)-9,9′-(but-2-ene-1,4-diyl)bis(2-(1-ethyl-3-methyl-1H-pyrazol-5-yl)-8-(3-hydroxypropoxy)-9H-pyrimido[4,5-b]indole-6-carboxamide)]

— patent US11008344B2, “Tricyclic heteroaryl compounds as STING activators” (Incyte Corporation, priority 2018, dated 2021)
